According to patent US8299022B2, “Analogs of ghrelin substituted at the N-terminal” (IPSEN Pharma S.A.S., priority 2006, dated 2012):
Like-named read-outs stand apart in the source and are kept apart here. * marks the point of attachment. Octanoyl = CCCCCCCC(=O)*

Legend:
human GSH receptor = biological target: T1, human GSH receptor (Homo sapiens, UniProt Q92847); experiment: In vitro GSH receptor mediated intracellular iCa2+ mobilization (Fura-2AM, CHO-K1 cells); assay type: cell-based; conditions: CHO-K1 cells expressing the human receptor, 37° C.
T1 construct: The full length human GHS-R was subcloned into the mammalian expression vector pcDNA 3.1; expressed in transfected cells
Experimental: 2A. In vitro GSH Receptor Mediated Intracellular iCa^2+Mobilization
The foregoing CHO-K1 cells expressing the human GSH receptor were harvested by incubating in a 0.3% EDTA/phosphate buffered saline solution at 25° C.; the cells were then washed 2 times by centrifugation. The washed cells were resuspended in Hank's buffered saline solution (HBSS) for loading of the fluorescent Ca^2+ indicator Fura-2AM. Cell suspensions of approximately 10^6 cells/ml were incubated with 2 μM Fura-2AM for about 30 minutes at about 25° C. Unloaded Fura-2AM was removed by centrifugation twice in HBSS and the final suspensions were transferred to a spectrofluorometer (model Hitachi F-2000® Tokyo, Japan) equipped with a magnetic stirring mechanism and a temperature-regulated cuvette holder. After equilibration to 37° C., the ghrelin analogs were added for measurement of intracellular Ca^2+ mobilization. The excitation and emission wavelengths were 340 and 510 nm, respectively. An increase in the amount of Ca^2+ measured was indicative of agonist activity of a tested peptide while a decrease in the amount (or lack of) Ca^2+ measure was indicative of antagonist activity of a tested peptide.

[1] = Rat plasma ½ life (stability in plasma in a rat model); assay type: in vitro ADME
Experimental: A selection of the preferred embodiments listed above was analyzed to determine stability, i.e. ½ life in plasma in a rat model using techniques known to those skilled in the art.

[2] = human, in vivo; cited from earlier work
[3] = rat, in vivo; cited from earlier work

T1 sequence (Q92847 whole entry): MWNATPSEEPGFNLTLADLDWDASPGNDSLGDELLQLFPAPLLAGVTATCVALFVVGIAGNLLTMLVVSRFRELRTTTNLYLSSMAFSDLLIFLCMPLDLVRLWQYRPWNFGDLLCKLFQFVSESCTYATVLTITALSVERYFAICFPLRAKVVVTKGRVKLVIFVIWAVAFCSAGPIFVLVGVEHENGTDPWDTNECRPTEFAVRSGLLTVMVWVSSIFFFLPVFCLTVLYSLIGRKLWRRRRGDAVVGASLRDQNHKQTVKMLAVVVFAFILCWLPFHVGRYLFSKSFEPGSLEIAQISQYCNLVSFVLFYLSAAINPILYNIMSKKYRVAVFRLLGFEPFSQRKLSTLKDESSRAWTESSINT

Molecule | agonist/antagonist activity at the ghrelin receptor (intracellular Ca2+ mobilization) (human GSH receptor) | Rat Plasma ½ life [1] | apparent half-life of exogenous ghrelin [2] | apparent half-life of exogenous ghrelin [3]
CCCCCCNC(=O)CC[C@H](NC(=O)C(C)(C)NC(=O)C1CCN(C(C)=O)CC1)C(=O)N[C@@H](Cc1ccccc1)C(=O)N[C@@H](CC(C)C)C(=O)N[C@@H](CO)C(=O)N1CCC[C@H]1C(=O)N[C@@H](CCC(=O)O)C(=O)N[C@@H](Cc1c[nH]cn1)C(=O)NC(C)(C)C(=O)N[C@@H](CCCNC(=N)N)C(=O)N[C@H](C(=O)N[C@@H](CCC(N)=O)C(=O)N[C@@H](CCC(N)=O)C(=O)N[C@@H](CCCNC(=N)N)C(=O)N[C@@H](CCCCN)C(=O)N[C@@H](CCC(=O)O)C(=O)N[C@@H](CO)C(=O)N[C@@H](CCCCN)C(=O)N[C@@H](CCCCN)C(=O)N1CCC[C@H]1C(=O)N1CCC[C@H]1C(=O)N[C@@H](C)C(=O)N[C@@H](CCCCN)C(=O)N[C@@H](CC(C)C)C(=O)N[C@@H](CCC(N)=O)C(=O)N1CCC[C@H]1C(=O)N[C@@H](CCCNC(=N)N)C(N)=O)C(C)C [Example 1, (Ac-Inp^1, Aib^2, 10, Glu(NH-hexyl)^3)hGhrelin(1-28)-NH2] | antagonistic activity | 9.4 h |  | 
CCCCCCNC(=O)CC[C@H](NC(=O)C(C)(C)NC(=O)C1CCNCC1)C(=O)N[C@@H](Cc1ccccc1)C(=O)N[C@@H](CC(C)C)C(=O)N[C@@H](CO)C(=O)N1CCC[C@H]1C(=O)N[C@@H](CCC(=O)O)C(=O)N[C@@H](Cc1c[nH]cn1)C(=O)NC(C)(C)C(=O)N[C@@H](CCCNC(=N)N)C(=O)N[C@H](C(=O)N[C@@H](CCC(N)=O)C(=O)N[C@@H](CCC(N)=O)C(=O)N[C@@H](CCCNC(=N)N)C(=O)N[C@@H](CCCCN)C(=O)N[C@@H](CCC(=O)O)C(=O)N[C@@H](CO)C(=O)N[C@@H](CCCCN)C(=O)N[C@@H](CCCCN)C(=O)N1CCC[C@H]1C(=O)N1CCC[C@H]1C(=O)N[C@@H](C)C(=O)N[C@@H](CCCCN)C(=O)N[C@@H](CC(C)C)C(=O)N[C@@H](CCC(N)=O)C(=O)N1CCC[C@H]1C(=O)N[C@@H](CCCNC(=N)N)C(N)=O)C(C)C [Example 3, (Inp^1, Aib^2, 10, Glu(NH-hexyl)^3)hGhrelin(1-28)-NH2] | antagonistic activity | 10.6 h |  | 
H-Gly-Ser-Ser-Phe-Leu-Ser-Pro-Glu-His-Gln-Arg-Val-Gln-Gln-Arg-Lys-Glu-Ser-Lys-Lys-Pro-Pro-Ala-Lys-Leu-Gln-Pro-Arg-NH2 (H-GSS(Octanoyl)FLSPEHQRVQQRKESKKPPAKLQPR-NH2; listed as Homo sapiens) [ghrelin] |  |  | 10 min | 30 min
